The numbers were not newly measured in patent US20060160088A1, “Diagnostics and therapeutics for diseases associated with g protein-coupled receptor 40 (gpr40)” (Bayer Healthcare AG, priority 2003, published 2006), which cites them from elsewhere.

The data set concerns the target GPR40 (Homo sapiens, UniProt O14842). The settings on record: activation of GPR40; most potent fatty acid tested.

Chain of GPR40 (O14842 whole entry): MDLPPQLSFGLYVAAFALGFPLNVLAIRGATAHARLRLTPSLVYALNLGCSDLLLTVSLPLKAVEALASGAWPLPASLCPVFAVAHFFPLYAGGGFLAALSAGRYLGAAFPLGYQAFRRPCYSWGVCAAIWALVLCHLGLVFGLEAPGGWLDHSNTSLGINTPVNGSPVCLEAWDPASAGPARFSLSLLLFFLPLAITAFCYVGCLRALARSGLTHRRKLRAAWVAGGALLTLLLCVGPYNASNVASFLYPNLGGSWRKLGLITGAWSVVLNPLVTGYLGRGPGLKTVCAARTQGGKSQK

Consider `CCCCCCCCC#CCC#CCC#CCCCC(=O)O` [Eicosatriynoic acid], for which the “pEC(50)” value is recorded as 5.7.
